Experimental data from ChEMBL document CHEMBL4715821, “Discovery of 4-ethoxy-7H-pyrrolo[2,3-d]pyrimidin-2-amines as potent, selective and orally bioavailable LRRK2 inhibitors” (Bioorg Med Chem Lett, 2018).

Assays:
[1] = In vivo inhibition of LRRK2 in C57BL6 mouse assessed as reduction in Ser935 phosphorylation in brain at 45 mg/kg, po after 1 hr by Western blot analysis; format: functional; design: scale not given: the % may be the effect or the level left
[2] = biological target: Mitogen-activated protein kinase kinase kinase 1 (Homo sapiens) (UniProt Q13233); assay: Inhibition of MEKK1 (unknown origin) assessed as residual activity at 1 uM by Kinomescan method relative to control
[3] = biological target: Protein kinase C iota type (Homo sapiens) (UniProt P41743); assay: Inhibition of PKCiota (unknown origin) assessed as residual activity at 1 uM by Kinomescan method relative to control
[4] = biological target: MAP/microtubule affinity-regulating kinase 4 (Homo sapiens) (UniProt Q96L34); assay: Inhibition of wild-type human partial length MARK4 (K29 to G340 residues) expressed in bacterial expression system assessed as residual activity at 1 uM by Kinomescan method relative to control
[5] = biological target: Inhibitor of nuclear factor kappa-B kinase subunit alpha (Homo sapiens) (UniProt O15111); assay: Inhibition of wild-type human full length IKK-alpha (M1 to E745 residues) expressed in mammalian expression system assessed as residual activity at 1 uM by Kinomescan method relative to control
[6] = biological target: Mitogen-activated protein kinase 7 (Homo sapiens) (UniProt Q13164); assay: Inhibition of wild-type human partial length ERK5 (M1 to A409 residues) expressed in bacterial expression system assessed as residual activity at 1 uM by Kinomescan method relative to control
[7] = biological target: cGMP-dependent protein kinase 2 (Homo sapiens) (UniProt Q13237); assay: Inhibition of wild-type human partial length PRKG2 (S422 to F762 residues) expressed in mammalian expression system assessed as residual activity at 1 uM by Kinomescan method relative to control
[8] = biological target: Serine/threonine-protein kinase 32C (Homo sapiens) (UniProt Q86UX6); assay: Inhibition of wild-type human partial length YANK3 (M68 to G486 residues) expressed in bacterial expression system assessed as residual activity at 1 uM by Kinomescan method relative to control
[9] = biological target: Tyrosine-protein kinase BTK (Homo sapiens) (UniProt Q06187); assay: Inhibition of wild-type human full length BTK (M1 to S659 residues) expressed in mammalian expression system assessed as residual activity at 1 uM by Kinomescan method relative to control
[10] = In vivo inhibition of LRRK2 in C57BL6 mouse assessed as reduction in Ser935 phosphorylation in lung at 45 mg/kg, po after 1 hr by Western blot analysis; format: functional; design: scale not given: the % may be the effect or the level left
[11] = biological target: Dual serine/threonine and tyrosine protein kinase (Homo sapiens) (UniProt Q6XUX3); assay: Inhibition of wild-type human full length RIPK5 (M1 to T929 residues) expressed in mammalian expression system assessed as residual activity at 1 uM by Kinomescan method relative to control
[12] = biological target: CDC7/DBF4 (Cell division cycle 7-related protein kinase/Activator of S phase kinase) (Homo sapiens) (UniProt Q9UBU7+O00311); assay: Inhibition of CDC7/DBF4 (unknown origin) assessed as residual activity at 1 uM by Kinomescan method relative to control; format: protein-complex assay
[13] = biological target: Macrophage colony-stimulating factor 1 receptor (Homo sapiens) (UniProt P07333); assay: Inhibition of FMS (unknown origin) assessed as residual activity at 1 uM by Kinomescan method relative to control
[14] = biological target: Mitogen-activated protein kinase 9 (Homo sapiens) (UniProt P45984); assay: Inhibition of wild-type human full length JNK2 (M1 to Q382 residues) expressed in mammalian expression system assessed as residual activity at 1 uM by Kinomescan method relative to control
[15] = In vivo inhibition of LRRK2 in C57BL6 mouse assessed as reduction in Ser935 phosphorylation in kidney at 45 mg/kg, po after 1 hr by Western blot analysis; format: functional; design: scale not given: the % may be the effect or the level left
[16] = biological target: Serine/threonine-protein kinase tousled-like 1 (Homo sapiens) (UniProt Q9UKI8); assay: Inhibition of wild-type human partial length TLK1 (K447 to A754 residues) expressed in bacterial expression system assessed as residual activity at 1 uM by Kinomescan method relative to control
[17] = biological target: 3-phosphoinositide-dependent protein kinase 1 (Homo sapiens) (UniProt O15530); assay: Inhibition of PDK1 (unknown origin) assessed as residual activity at 1 uM by Kinomescan method relative to control
[18] = biological target: Serine/threonine-protein kinase 4 (Homo sapiens) (UniProt Q13043); assay: Inhibition of wild-type human full length MST1 (M1 to F487 residues) expressed in bacterial expression system assessed as residual activity at 1 uM by Kinomescan method relative to control
[19] = biological target: Proto-oncogene tyrosine-protein kinase receptor Ret (Homo sapiens) (UniProt P07949); assay: Inhibition of wild-type human partial length RET (E713 to D1014 residues) expressed in bacterial expression system assessed as residual activity at 1 uM by Kinomescan method relative to control
[20] = biological target: Mitogen-activated protein kinase kinase kinase 11 (Homo sapiens) (UniProt Q16584); assay: Inhibition of wild-type human partial length MLK3 (I77 to W399 residues) expressed in bacterial expression system assessed as residual activity at 1 uM by Kinomescan method relative to control
[21] = biological target: Mitogen-activated protein kinase 3 (Homo sapiens) (UniProt P27361); assay: Inhibition of wild-type human full length ERK1 (M1 to P379 residues) expressed in bacterial expression system assessed as residual activity at 1 uM by Kinomescan method relative to control
[22] = biological target: Tyrosine-protein kinase Lck (Homo sapiens) (UniProt P06239); assay: Inhibition of wild-type human partial length LCK (R207 to P509 residues) expressed in bacterial expression system assessed as residual activity at 1 uM by Kinomescan method relative to control
[23] = biological target: NT-3 growth factor receptor (Homo sapiens) (UniProt Q16288); assay: Inhibition of wild-type human partial length TRKC (Q531 to G825 residues) expressed in mammalian expression system assessed as residual activity at 1 uM by Kinomescan method relative to control
[24] = biological target: MAP kinase-activated protein kinase 5 (Homo sapiens) (UniProt Q8IW41); assay: Inhibition of wild-type human partial length MAPKAPK5 (M1 to D322 residues) expressed in mammalian expression system assessed as residual activity at 1 uM by Kinomescan method relative to control
[25] = biological target: CDK1/Cyclin E (Homo sapiens) (UniProt P06493+P24864); assay: Inhibition of CDK1/Cyclin E (unknown origin) assessed as residual activity at 1 uM by Kinomescan method relative to control; format: protein-complex assay
[26] = biological target: Tyrosine-protein kinase ZAP-70 (Homo sapiens) (UniProt P43403); assay: Inhibition of wild-type human partial length ZAP70 (D20 to G299 residues) expressed in mammalian expression system assessed as residual activity at 1 uM by Kinomescan method relative to control
[27] = biological target: Casein kinase I isoform epsilon (Homo sapiens) (UniProt P49674); assay: Inhibition of CK1epsilon (unknown origin) assessed as residual activity at 1 uM by Kinomescan method relative to control
Chain of Casein kinase I isoform epsilon (Homo sapiens) (P49674 whole entry, looked up, canonical isoform): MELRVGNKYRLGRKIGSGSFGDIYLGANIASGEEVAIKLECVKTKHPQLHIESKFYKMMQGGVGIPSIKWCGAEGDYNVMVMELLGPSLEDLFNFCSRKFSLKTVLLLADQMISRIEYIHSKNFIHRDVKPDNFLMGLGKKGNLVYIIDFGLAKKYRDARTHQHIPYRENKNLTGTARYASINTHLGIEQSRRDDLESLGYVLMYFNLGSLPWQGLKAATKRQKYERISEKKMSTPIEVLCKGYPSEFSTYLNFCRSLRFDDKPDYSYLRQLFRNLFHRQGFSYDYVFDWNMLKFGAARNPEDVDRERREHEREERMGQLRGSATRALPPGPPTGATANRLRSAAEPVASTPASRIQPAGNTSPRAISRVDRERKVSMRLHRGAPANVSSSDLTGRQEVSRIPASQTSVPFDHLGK

Chain of NT-3 growth factor receptor (Homo sapiens) (Q16288 32-839 limits assumed): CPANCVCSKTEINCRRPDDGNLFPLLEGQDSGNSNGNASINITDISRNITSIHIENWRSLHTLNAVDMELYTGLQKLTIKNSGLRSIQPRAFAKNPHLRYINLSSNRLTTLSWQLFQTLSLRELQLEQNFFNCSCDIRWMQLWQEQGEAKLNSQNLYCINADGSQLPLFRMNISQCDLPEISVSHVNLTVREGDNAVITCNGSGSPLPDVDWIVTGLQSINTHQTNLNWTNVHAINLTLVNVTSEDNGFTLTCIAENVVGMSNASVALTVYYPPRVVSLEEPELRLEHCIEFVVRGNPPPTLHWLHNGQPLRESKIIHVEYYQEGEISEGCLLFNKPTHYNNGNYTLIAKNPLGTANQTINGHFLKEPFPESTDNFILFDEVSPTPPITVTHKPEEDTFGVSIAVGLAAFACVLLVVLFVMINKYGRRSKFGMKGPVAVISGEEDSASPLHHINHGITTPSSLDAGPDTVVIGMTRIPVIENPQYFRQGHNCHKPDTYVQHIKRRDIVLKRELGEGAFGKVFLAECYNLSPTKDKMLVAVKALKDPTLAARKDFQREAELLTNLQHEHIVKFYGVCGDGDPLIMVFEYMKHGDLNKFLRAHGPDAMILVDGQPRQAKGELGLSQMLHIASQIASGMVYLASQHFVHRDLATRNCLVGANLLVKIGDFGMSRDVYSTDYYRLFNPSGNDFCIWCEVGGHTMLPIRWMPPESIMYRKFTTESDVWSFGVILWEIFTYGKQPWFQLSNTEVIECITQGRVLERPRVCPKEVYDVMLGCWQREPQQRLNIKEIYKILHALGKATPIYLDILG
Chain of Mitogen-activated protein kinase 7 (Homo sapiens) (Q13164 2-816 limits assumed): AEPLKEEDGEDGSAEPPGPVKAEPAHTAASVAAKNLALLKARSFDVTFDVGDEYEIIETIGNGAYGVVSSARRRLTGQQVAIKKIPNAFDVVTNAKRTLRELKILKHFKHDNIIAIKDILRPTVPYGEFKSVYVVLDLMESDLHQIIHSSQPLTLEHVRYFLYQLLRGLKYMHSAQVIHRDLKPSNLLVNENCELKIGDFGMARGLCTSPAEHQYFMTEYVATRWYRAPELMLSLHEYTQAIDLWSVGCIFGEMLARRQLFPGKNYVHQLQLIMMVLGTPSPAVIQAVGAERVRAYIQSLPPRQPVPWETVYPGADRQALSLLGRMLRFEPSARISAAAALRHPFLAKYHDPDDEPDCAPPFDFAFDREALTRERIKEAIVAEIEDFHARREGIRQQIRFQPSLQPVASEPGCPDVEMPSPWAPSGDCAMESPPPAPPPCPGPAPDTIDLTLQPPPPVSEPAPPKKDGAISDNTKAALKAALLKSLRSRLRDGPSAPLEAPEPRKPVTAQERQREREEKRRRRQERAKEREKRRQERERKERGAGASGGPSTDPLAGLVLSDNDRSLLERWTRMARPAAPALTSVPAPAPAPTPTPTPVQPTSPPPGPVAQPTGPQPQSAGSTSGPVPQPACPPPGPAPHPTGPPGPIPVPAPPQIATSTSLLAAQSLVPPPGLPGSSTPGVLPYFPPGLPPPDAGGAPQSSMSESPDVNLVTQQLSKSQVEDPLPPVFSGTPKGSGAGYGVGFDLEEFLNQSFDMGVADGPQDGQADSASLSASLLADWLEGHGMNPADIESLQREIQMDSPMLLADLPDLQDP
Chain of Proto-oncogene tyrosine-protein kinase receptor Ret (Homo sapiens) (P07949 whole entry, the tested form may be a part): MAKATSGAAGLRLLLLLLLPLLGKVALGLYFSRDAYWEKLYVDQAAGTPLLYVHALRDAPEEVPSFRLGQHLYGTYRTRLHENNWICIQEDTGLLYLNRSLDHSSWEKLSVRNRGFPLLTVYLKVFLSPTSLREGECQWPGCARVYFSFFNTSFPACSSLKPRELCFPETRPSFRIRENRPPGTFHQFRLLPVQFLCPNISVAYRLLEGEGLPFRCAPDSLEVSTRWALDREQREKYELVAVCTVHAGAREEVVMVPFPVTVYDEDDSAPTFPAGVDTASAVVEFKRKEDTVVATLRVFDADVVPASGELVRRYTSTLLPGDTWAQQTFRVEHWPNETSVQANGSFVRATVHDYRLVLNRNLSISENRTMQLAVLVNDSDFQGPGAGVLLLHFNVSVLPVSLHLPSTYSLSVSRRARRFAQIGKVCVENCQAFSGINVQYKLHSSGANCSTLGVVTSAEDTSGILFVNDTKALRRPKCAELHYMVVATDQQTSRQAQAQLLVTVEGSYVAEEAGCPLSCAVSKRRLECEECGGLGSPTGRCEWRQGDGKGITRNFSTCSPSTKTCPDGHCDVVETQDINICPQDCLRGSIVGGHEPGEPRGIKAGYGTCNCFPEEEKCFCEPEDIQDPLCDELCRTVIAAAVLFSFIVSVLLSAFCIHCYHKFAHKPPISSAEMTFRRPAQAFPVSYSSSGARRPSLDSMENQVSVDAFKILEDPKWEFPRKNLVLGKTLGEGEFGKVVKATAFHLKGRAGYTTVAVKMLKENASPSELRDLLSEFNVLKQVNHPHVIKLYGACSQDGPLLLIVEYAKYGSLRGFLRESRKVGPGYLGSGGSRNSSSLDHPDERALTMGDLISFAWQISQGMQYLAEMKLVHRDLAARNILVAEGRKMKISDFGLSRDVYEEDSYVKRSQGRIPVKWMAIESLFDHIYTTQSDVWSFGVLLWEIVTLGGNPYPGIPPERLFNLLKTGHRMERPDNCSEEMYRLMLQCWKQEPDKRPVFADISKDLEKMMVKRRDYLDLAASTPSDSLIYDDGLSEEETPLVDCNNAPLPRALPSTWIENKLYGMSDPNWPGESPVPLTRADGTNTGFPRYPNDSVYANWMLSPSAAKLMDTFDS
Chain of Mitogen-activated protein kinase 3 (Homo sapiens) (P27361 whole entry, the tested form may be a part): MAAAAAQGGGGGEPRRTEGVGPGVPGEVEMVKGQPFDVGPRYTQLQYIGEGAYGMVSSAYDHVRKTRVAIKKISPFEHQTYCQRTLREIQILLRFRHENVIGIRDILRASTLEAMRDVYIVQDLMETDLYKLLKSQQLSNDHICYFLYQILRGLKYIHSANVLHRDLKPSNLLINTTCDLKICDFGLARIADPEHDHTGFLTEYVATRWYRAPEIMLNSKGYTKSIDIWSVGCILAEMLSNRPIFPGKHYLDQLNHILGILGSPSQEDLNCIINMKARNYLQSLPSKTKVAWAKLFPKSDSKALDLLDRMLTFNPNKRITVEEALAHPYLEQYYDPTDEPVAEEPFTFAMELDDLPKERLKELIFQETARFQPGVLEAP
Chain of 3-phosphoinositide-dependent protein kinase 1 (Homo sapiens) (O15530 whole entry, looked up, the tested form may be a part): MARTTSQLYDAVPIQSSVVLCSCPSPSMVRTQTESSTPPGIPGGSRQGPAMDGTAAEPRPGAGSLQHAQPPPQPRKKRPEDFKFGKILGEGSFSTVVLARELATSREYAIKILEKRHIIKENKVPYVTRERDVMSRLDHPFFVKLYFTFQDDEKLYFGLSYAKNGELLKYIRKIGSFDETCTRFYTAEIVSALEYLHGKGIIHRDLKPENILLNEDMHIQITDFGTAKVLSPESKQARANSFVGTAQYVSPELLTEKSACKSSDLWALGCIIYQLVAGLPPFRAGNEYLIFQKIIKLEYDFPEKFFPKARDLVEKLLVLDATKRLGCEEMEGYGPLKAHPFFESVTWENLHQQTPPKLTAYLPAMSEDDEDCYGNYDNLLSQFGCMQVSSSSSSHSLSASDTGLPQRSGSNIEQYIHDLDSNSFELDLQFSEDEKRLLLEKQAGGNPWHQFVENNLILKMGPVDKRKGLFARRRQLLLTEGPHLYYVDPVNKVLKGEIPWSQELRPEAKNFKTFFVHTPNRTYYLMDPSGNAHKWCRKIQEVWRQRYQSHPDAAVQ
Chain of Serine/threonine-protein kinase tousled-like 1 (Homo sapiens) (Q9UKI8 whole entry, the tested form may be a part): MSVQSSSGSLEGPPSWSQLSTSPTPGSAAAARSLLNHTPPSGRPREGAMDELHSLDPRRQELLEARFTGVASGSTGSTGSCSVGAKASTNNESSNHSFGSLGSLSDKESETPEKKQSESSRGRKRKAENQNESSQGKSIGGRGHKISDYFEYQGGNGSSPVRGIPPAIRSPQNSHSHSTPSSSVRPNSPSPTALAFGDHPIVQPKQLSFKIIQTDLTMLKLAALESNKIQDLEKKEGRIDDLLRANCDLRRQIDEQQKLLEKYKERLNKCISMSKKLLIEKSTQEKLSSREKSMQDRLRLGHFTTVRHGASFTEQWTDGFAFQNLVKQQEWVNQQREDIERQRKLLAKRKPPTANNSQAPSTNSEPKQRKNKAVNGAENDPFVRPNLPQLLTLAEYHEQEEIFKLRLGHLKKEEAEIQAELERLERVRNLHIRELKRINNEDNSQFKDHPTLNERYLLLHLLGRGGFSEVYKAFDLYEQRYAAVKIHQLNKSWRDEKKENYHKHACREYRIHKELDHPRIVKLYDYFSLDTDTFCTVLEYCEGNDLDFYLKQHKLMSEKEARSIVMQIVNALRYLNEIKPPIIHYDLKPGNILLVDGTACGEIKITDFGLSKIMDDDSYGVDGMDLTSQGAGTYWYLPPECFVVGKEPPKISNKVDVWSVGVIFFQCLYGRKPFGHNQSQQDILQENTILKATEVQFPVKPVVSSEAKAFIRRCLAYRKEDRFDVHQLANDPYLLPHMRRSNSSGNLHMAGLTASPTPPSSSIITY

Q: For CCOc1nc(Nc2ccc(C(=O)N3CCOCC3)cc2OC)nc2[nH]ccc12, which Activity [1] is on record?
A: 50%

Q: What about the Activity [2] of the same molecule?
A: 99%

Q: What about the Activity [3] of the same molecule?
A: 96.5%

Q: What about the Activity [4] of the same molecule?
A: 101%

Q: And the Activity [5]?
A: 85.3%

Q: And the Activity [6]?
A: 99.1%

Q: And the Activity [7]?
A: 104%

Q: What about the Activity [8] of the same molecule?
A: 107%

Q: What about the Activity [9] of the same molecule?
A: 101%

Q: And the Activity [10]?
A: 80%

Q: And the Activity [11]?
A: 111%

Q: And the Activity [12]?
A: 102%

Q: What about the Activity [13] of the same molecule?
A: 106%

Q: What about the Activity [14] of the same molecule?
A: 43.1%

Q: And the Activity [15]?
A: 80%

Q: And the Activity [16]?
A: 98.1%

Q: What about the Activity [17] of the same molecule?
A: 93.1%

Q: What about the Activity [18] of the same molecule?
A: 99.8%

Q: And the Activity [19]?
A: 101%

Q: What about the Activity [20] of the same molecule?
A: 101%

Q: And the Activity [21]?
A: 95.7%

Q: What about the Activity [22] of the same molecule?
A: 80.4%

Q: What about the Activity [23] of the same molecule?
A: 97.7%

Q: And the Activity [24]?
A: 81.8%

Q: And the Activity [25]?
A: 96.4%

Q: What about the Activity [26] of the same molecule?
A: 124%

Q: And the Activity [27]?
A: 69.6%
